Assay results from ChEMBL document CHEMBL2010706, “Microfluidic technology: an economical and versatile approach for the synthesis of O-(2-[18F]fluoroethyl)-L-tyrosine ([18F]FET)” (Bioorg Med Chem Lett, 2012).

Tests used:
[1] = system: Nucleic Acid; assay: Ratio of drug uptake in tumor to muscle of Balb/c mouse after 60 mins […] by PET analysis; type: ADME, nucleic-acid assay; details: in vivo, 1 h
[2] = Drug uptake in mouse EMT6 tumor xenografted in Balb/c mouse after 60 mins by PET analysis; type: ADME, Neoplasm; details: in vivo, 1 h
[3] = Drug uptake in mouse EMT6 tumor xenografted in Balb/c mouse assessed per mg of protein after 15 mins by PET analysis; type: ADME, Neoplasm; details: in vivo, 0.25 h
[4] = Drug uptake in mouse EMT6 tumor xenografted in Balb/c mouse assessed per mg of protein after 100 mins by PET analysis; type: ADME, Neoplasm; details: in vivo
[5] = system: Muscle tissue; assay: Drug uptake in Balb/c mouse muscle after 30 to 60 mins by PET analysis; type: ADME, tissue-based; details: in vivo
[6] = system: Muscle tissue; assay: Drug uptake in Balb/c mouse muscle after 10 mins by PET analysis; type: ADME, tissue-based; details: in vivo
[7] = Drug uptake in mouse EMT6 tumor xenografted in Balb/c mouse after 30 mins by PET analysis; type: ADME, Neoplasm; details: in vivo, 0.5 h

Ratio [1]: 4.04
SUV [2]: 1.21
Drug uptake [3]: 105 %ID
Drug uptake [4]: 60 %ID
Drug uptake [5]: Not Active
Drug uptake [6]: Active
SUV [7]: 1.28
SMILES: N[C@@H](Cc1ccc(OCC[18F])cc1)C(=O)O [FLORETYROSINE F18]
